The results in this text go back to patent US8507493B2 (AbbVie Inc., priority 2009, dated 2013).

The assay deals with T1, human 11β-HSD1 (Homo sapiens, UniProt P28845).
T1 construct: truncated (24-287aa) human 11β-HSD1 enzyme; made in house; host or cells: E. coli (lysate, not purified)
Briefly: Human 11β-HSD1 enzymatic SPA assay. The format is biochemical. The following applies: truncated (24-287aa) human 11β-HSD1, apparent Ki from IC50 by Cheng-Prusoff. As to the method: The ability of test compounds to inhibit human 11β-HSD1 enzymatic activity in vitro was evaluated in a Scintillation Proximity Assay (SPA). Tritiated-cortisone substrate, NADPH cofactor and titrated compound were incubated with truncated (24-287aa) human 11β-HSD1 enzyme at room temperature to allow the conversion to cortisol to occur. The reaction was stopped by adding a non-specific 11β-HSD inhibitor, glycyrrhetinic acid. The tritiated cortisol was captured by a mixture of an anti-cortisol monoclonal antibody and SPA beads coated with anti-mouse antibodies. The reaction plate was shaken at room temperature and the radiolabel bound to SPA beads was then measured on a scintillation counter. The 11β-HSD1 assay was carried out in 96-well microtiter plates in a total volume of […]. To start the assay, 188 μL of master mix which contained 75 nM ^3H-cortisone, 100 nM cortisone and 181 μM NADPH was added to the wells. In order to drive the reaction in the 11β-reductase direction, 1 mM glucose-6-phosphate (G-6-P) and 1 U/mL G-6-P dehydrogenase were also added as a NADPH generating system. Solid compound was dissolved in dimethyl sulfoxide to make a 10 mM stock followed by a subsequent 10-fold serial dilution with dimethyl sulfoxide. Each compound solution in dimethyl sulfoxide was 10-fold diluted in Tris/EDTA buffer (pH 7.4). 22 μL of titrated compound were then added in duplicate to the substrate. Reactions were initiated by the addition of 10 μL of 0.1 mg/mL E. coli lysates overexpressing 11β-HSD1 enzyme. After shaking and incubating plates for 30 minutes at room temperature, reactions were stopped by adding 10 μL of 1 mM glycyrrhetinic acid. The product, tritiated cortisol, was captured by adding 10 μL of 1 μM monoclonal mouse anti-cortisol antibodies and 50 μL of SPA beads coated with anti-mouse antibodies. After shaking for 30 minutes, plates were read in a Microbeta scintillation counter. Percent inhibition was calculated based on the background and the maximal signal. Wells that contained substrate without compound or enzyme were used as the background, while the wells that contained substrate and enzyme without any compound were considered as maximal signal. Percent of inhibition of each compound was calculated relative to the maximal signal and IC50 curves were generated. Assuming competitive inhibition the Cheng-Prusoff equation was used to calculate apparent Ki values from the IC50 values. This assay was applied to 11β-HSD2 as well, whereby 6 nM tritiated cortisol and 250 uM NAD^+ were used as substrate and cofactor, respectively.

Structures are written as SMILES.

T1 sequence (P28845 24-287): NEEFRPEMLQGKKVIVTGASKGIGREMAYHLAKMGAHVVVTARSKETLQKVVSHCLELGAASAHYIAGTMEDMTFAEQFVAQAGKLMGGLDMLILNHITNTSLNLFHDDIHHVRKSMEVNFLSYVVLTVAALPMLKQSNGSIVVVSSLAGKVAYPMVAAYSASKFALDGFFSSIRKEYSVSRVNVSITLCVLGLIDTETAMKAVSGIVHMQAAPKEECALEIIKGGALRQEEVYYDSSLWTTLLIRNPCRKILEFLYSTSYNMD

On to `CC(C)(Cc1ccc(Cl)cc1)C(=NC#N)NC1C2CC3CC1CC(O)(C3)C2` (stereo not drawn) [Example 23, (1E)-3-(4-Chlorophenyl)-N′-cyano-N-[(E)-5-hydroxy-2-adamantyl]-2,2-dimethyl propanimidamide], for which the Ki lay in the range of 100 to 1000 nM.

Turning to `CC(C)(Oc1ccc(Cl)cn1)C(=NC#N)NC1C2CC3CC1CC(S(C)(=O)=O)(C3)C2` (stereo not drawn) [Example 67, (1E)-2-[(5-chloropyridin-2-yl)oxy]-N-cyano-2-methyl-N-[(E)-5-(methylsulfonyl)adamantan-2-yl]propanimidamide], the Ki lay within 100 to 1000 nM.

With `CC1(C)/C(=N/C#N)N([C@@H]2[C@@H]3C[C@@H]4C[C@H]2C[C@@](S(C)(=O)=O)(C4)C3)CC1COc1ccc(C#N)cn1` (stereo partly drawn) [Example 33, (2Z)-4-{[(5-Cyanopyridin-2-yl)oxy]methyl}-3,3-dimethyl-1-[(E)-5-(methylsulfonyl)-2-adamantyl]pyrrolidin-2-ylidenecyanamide], the Ki lay within 100 to 1000 nM.

As for `CC(C)(Oc1ccc(F)cc1Cl)C(=NC#N)NC1C2CC3CC1CC(O)(C3)C2` (stereo not drawn) [Example 1, (1E)-2-(2-Chloro-4-fluorophenoxy)-Y-cyano-N-[(E)-5-hydroxy-2-adamantyl]-2-methylpropanimidamide], the Ki fell in the range of 10 to 100 nM.

Consider `CC(C)(Oc1ccc(Cl)cc1F)C(=NC#N)NC12CC3CC(CC1C3)C2` [Example 73, 2-(4-chloro-2-fluorophenoxy)-Y-cyano-N-(hexahydro-2,5-methanopentalen-3a(1H)-yl)-2-methylpropanimidamide], for which the Ki is 100 to 1000 nM.

On to `N#CN=C(Cc1ccc(F)cc1F)NC1C2CC3CC1CC(O)(C3)C2` (stereo not drawn) [Example 4, (1E)-N′-Cyano-2-(2,4-difluorophenyl)-N-[(E)-5-hydroxy-2-adamantyl]ethanimidamide], for which the Ki is > 1000 nM.

With `CC(C)(Oc1ccc(Cl)cc1)/C(=N\C#N)NC12CC3CC(CC1C3)C2` [Example 38, (1E)-2-(4-Chlorophenoxy)-N′-cyano-N-hexahydro-2,5-methanopentalen-3a(1H)-yl-2-methylpropanimidamide], the Ki is 10 to 100 nM.

For `CC(C)(Oc1ccc(Cl)cc1)C(=NC#N)NC12CCC(C(F)F)(CC1)CC2` [Example 85, 2-(4-chlorophenoxy)-N′-cyano-N-[4-(difluoromethyl)bicyclo[2.2.2]oct-1-yl]-2-methylpropanimidamide], the Ki is 100 to 1000 nM.

On to `CC(C)(Oc1ccc(Cl)cc1)C(=NC#N)NC1CC2CCC1C2` (stereo not drawn) [Example 42, N-[exo-Bicyclo[2.2.1]hept-2-yl]-2-(4-chlorophenoxy)-N′-cyano-2-methylpropanimidamide], for which the Ki is 100 to 1000 nM.

As to `COC(=O)C12CC3CC(C1)C(NC(=S)C(C)(C)OCc1ccc(C(F)(F)F)cc1)C(C3)C2` (stereo not drawn) [Example 16, Methyl(E)-4-[(2-methyl-2-{[4-(trifluoromethyl)benzyl]oxy}propanethioyl)amino]adamantane-1-carboxylate], the Ki was 100 to 1000 nM.

Regarding `N#CN=C(Cc1cccnc1Cl)NC1C2CC3CC1CC(O)(C3)C2` (stereo not drawn) [Example 6, (1E)-2-(2-Chloropyridin-3-yl)-N′-cyano-N-[(E)-5-hydroxy-2-adamantyl]ethanimidamide], the Ki is > 1000 nM.

As for `CON=C(NC1C2CC3CC1CC(S(C)(=O)=O)(C3)C2)C(C)(C)Oc1ccc(Cl)cc1` (stereo not drawn) [Example 13, (1E)-2-(4-Chlorophenoxy)-N-methoxy-2-methyl-N-[(E)-5-(methylsulfonyl)-2-adamantyl]propanimidamide], the Ki fell in the range of 100 to 1000 nM.

For `CC(C)(Oc1ccc(Cl)cc1F)/C(=N\C#N)NC1CN2CCC1CC2` (stereo not drawn) [Example 72, (1E)-N-(1-azabicyclo[2.2.2]oct-3-yl)-2-(4-chloro-2-fluorophenoxy)-N′-cyano-2-methylpropanimidamide], the Ki was > 1000 nM.

Take `CC(C)(Oc1ccccc1)C(=NC#N)NC12CCC(C(F)F)(CC1)C2` [Example 89, N′-cyano-N-[4-(difluoromethyl)bicyclo[2.2.1]hept-1-yl]-2-methyl-2-phenoxypropanimidamide]: the Ki fell in the range of 10 to 100 nM.

Take `COC(=O)C12CC3CC(C1)C(NC(=S)C(C)(C)N1CCN(c4ccc(C(F)(F)F)cn4)CC1)C(C3)C2` (stereo not drawn) [Example 21, Methyl(E)-4-[(2-methyl-2-{4-[5-(trifluoromethyl)pyridin-2-yl]piperazin-1-yl}propanethioyl)amino]adamantane-1-carboxylate]: the Ki lay in the range of 10 to 100 nM.

For the compound `COC(=O)C12CC3CC(C1)C(NC(=NC#N)C(C)(C)OCc1ccc(C(F)(F)F)cc1)C(C3)C2` (stereo not drawn) [Example 17, Methyl(E)-4-[((1E)-N-cyano-2-methyl-2-{[4-(trifluoromethyl)benzyl]oxy}propanimidoyl)amino]adamantane-1-carboxylate], the Ki was 100 to 1000 nM.

Turning to `CC(C)(Oc1ccc(F)cc1F)C(=NC#N)NC1C2CC3CC1CC(C(N)=O)(C3)C2` (stereo not drawn) [Example 70, (E)-4-{[(1E)-N-cyano-2-(2,4-difluorophenoxy)-2-methylpropanimidoyl]amino}adamantane-1-carboxamide], the Ki was ≤ 10 nM.

As to `CC(C)(Oc1ccccc1)C(=NC#N)NC12CCC(C(=O)O)(CC1)CC2` [Example 87, 4-{[N-cyano-2-methyl-2-phenoxypropanimidoyl]amino}bicyclo[2.2.2]octane-1-carboxylic acid], the Ki was > 1000 nM.

In the case of `CC(C)(Oc1ccc(F)cc1F)C(=NC#N)NC1C2CC3CC1CC(S(C)(=O)=O)(C3)C2` (stereo not drawn) [Example 45, (1E)-N′-cyano-2-(2,4-difluorophenoxy)-2-methyl-N-[(E)-5-(methylsulfonyl)adamantan-2-yl]propanimidamide], the Ki is ≤ 10 nM.

On to `N#CN=C(NC1C2CC3CC1CC(O)(C3)C2)C1(Oc2cccc(Cl)c2)CCC1` (stereo not drawn) [Example 15, 1-(3-Chlorophenoxy)-N′-cyano-N-[(E)-5-hydroxy-2-adamantyl]cyclobutane carboximidamide], for which the Ki fell in the range of 100 to 1000 nM.

For `CC(C)(Oc1ccc(Cl)cc1)C(=NC#N)NC12CCC(C(=O)O)(CC1)CC2` [Example 46, 4-{[2-(4-chlorophenoxy)-N-cyano-2-methylpropanimidoyl]amino}bicyclo[2.2.2]octane-1-carboxylic acid], the Ki was > 1000 nM.

For `Cc1ccccc1CC(=NC#N)NC1C2CC3CC1CC(O)(C3)C2` (stereo not drawn) [Example 2, (1E)-N-Cyano-N-[(E)-5-hydroxy-2-adamantyl]-2-(2-methylphenyl)ethanimidamide], the Ki was > 1000 nM.

As for `CC(C)(Oc1ccc(Cl)cc1F)C(=NC#N)NC1CCCCCCC1` [Example 61, 2-(4-chloro-2-fluorophenoxy)-N′-cyano-N-cyclooctyl-2-methylpropanimidamide], the Ki was in the range of 100 to 1000 nM.

As for `CC(C)(Oc1ccc(Cl)cc1)C(=NC#N)NC12CCC(C(N)=O)(CC1)C2` [Example 88, 4-{[2-(4-chlorophenoxy)-N-cyano-2-methylpropanimidoyl]amino}bicyclo[2.2.1]heptane-1-carboxamide], the Ki fell in the range of 100 to 1000 nM.

With `CC(C)(Oc1ccc(Cl)cc1)/C(=N\C#N)N[C@@H]1[C@@H]2C[C@@H]3C[C@H]1C[C@@](C(=O)O)(C3)C2` [Example 36, (E)-4-{[(1E)-2-(4-Chlorophenoxy)-N-cyano-2-methylpropanimidoyl]amino}adamantane-1-carboxylic acid], the Ki lay in the range of 100 to 1000 nM.

For the compound `COC(=O)C12CC3CC(C1)C(NC(=NC#N)C(C)(C)N1CC4CC(c5ccc(Cl)cc5)C4C1)C(C3)C2` (stereo not drawn) [Example 48, methyl(E)-4-({(1E)-2-[(1R*,5S*,6R*)-6-(4-chlorophenyl)-3-azabicyclo[3.2.0]hept-3-yl]-N-cyano-2-methylpropanimidoyl}amino)adamantane-1-carboxylate], the Ki was 100 to 1000 nM.

`CC(C)(Oc1ccccc1F)C(=NC#N)NC1C2CC3CC1CC(S(N)(=O)=O)(C3)C2` (stereo not drawn) [Example 79, (1E)-N′-cyano-2-(2-fluorophenoxy)-2-methyl-N-[(E)-5-sulfamoyladamantan-2-yl]propanimidamide]: the Ki was in the range of 10 to 100 nM.

`CC(C)(Oc1ccc(Cl)cc1F)/C(=N\C#N)NC1C2CC3CC1CC(C(N)=O)(C3)C2` (stereo not drawn) [Example 74, (E)-4-{[(1E)-2-(4-chloro-2-fluorophenoxy)-N-cyano-2-methylpropanimidoyl]amino}adamantane-1-carboxamide]: the Ki was ≤ 10 nM.

For `CC(C)(OCc1ccc(C(F)(F)F)cc1)/C(=N\C#N)N[C@@H]1[C@@H]2C[C@@H]3C[C@H]1C[C@@](C(N)=O)(C3)C2` [Example 25, (E)-4-[((1E)-N-Cyano-2-methyl-2-{[4-(trifluoromethyl)benzyl]oxy}propanimidoyl)amino]adamantane-1-carboxamide], the Ki lay in the range of 10 to 100 nM.

As for `CC(C)(Oc1ccc(Cl)cc1F)C(=NC#N)NC12CC3CC(CC(C3)C1)C2` [Example 60], the Ki was 10 to 100 nM.
